Measurements as given in ChEMBL document CHEMBL4266001, “Potent Antimalarial Activity of Two Arenes Linked with Triamine Designed To Have Multiple Interactions with Heme” (ACS Med Chem Lett, 2018).
Calls of active or inactive are those of the source. The calls are words filed in the database; no cut-off is given here.

How the values were obtained:
[1] = system: Plasmodium falciparum; test: Antiplasmodial activity against chloroquine-resistant Plasmodium falciparum K1 infected in human erythrocytes measured after 72 hrs by malstat reagent based LDH release assay; assay type: functional, organism-based; conditions: K1, 72 h
[2] = system: Plasmodium falciparum; test: Antiplasmodial activity against chloroquine-sensitive Plasmodium falciparum FCR-3 infected in human erythrocytes measured after 72 hrs by malstat reagent based LDH release assay; assay type: functional, organism-based; conditions: FCR-3/Gambia
[3] = Binding affinity to hemin at pH 5.2 by ITC
[4] = Selectivity index, ratio of cytotoxic concentration for human MRC5 cells to IC50 for chloroquine-resistant Plasmodium falciparum K1 infected in human erythrocytes
[5] = Inhibition of Plasmodium falciparum FCR-3 HDP expressed in Escherichia coli assessed as reduction in hemazoin formation; design: species or system Plasmodium falciparum FCR-3/Gambia
[6] = system: Plasmodium berghei; test: Antimalarial activity against Plasmodium berghei N infected in mouse assessed as mouse survival at 30 mg/kg, po once daily for 4 consecutive days starting from 2 hrs post infection relative to control; assay type: functional
[7] = system: Plasmodium berghei; test: Antimalarial activity against Plasmodium berghei N infected in mouse assessed as mouse survival at 30 mg/kg, sc once daily for 4 consecutive days starting from 2 hrs post infection relative to control; assay type: functional
[8] = system: Plasmodium berghei; test: animal or person; assay type: functional; conditions: N, in Mus musculus, sc
[9] = system: Plasmodium berghei; test: animal or person; assay type: functional; conditions: N, in Mus musculus, po
[10] = system: Plasmodium berghei; test: Antimalarial activity against Plasmodium berghei N infected in mouse assessed as inhibition of parasitemia at 15 mg/kg, po once daily for 4 consecutive days starting from 2 hrs post infection measured on day 4 post last dose relative to control; assay type: functional
[11] = system: Plasmodium berghei; test: Antimalarial activity against Plasmodium berghei N infected in mouse assessed as mouse survival at 15 mg/kg, po once daily for 4 consecutive days starting from 2 hrs post infection relative to control; assay type: functional

Row | Structure (SMILES) | IC50 [1] | IC50 [2] | selectivity ratio [4] | also measured
1 | CN(CCCNc1ccc2ccccc2n1)CCCNc1ccnc2cc(Cl)ccc12 | 37 nM | 0.92 nM | 61 | Activity [3]: Active; IC50 [5]: 0.92 nM
2 | CN(CCNC(=O)C=Cc1ccc2ccccc2c1)CCNc1ccnc2cc(Cl)ccc12 | 28 nM | 12 nM | 1200 | survival at 30 mg/kg [6]: 100%; survival at 30 mg/kg [7]: 223%; Activity [3]: Active; inhibition in vivo at 30 mg/kg [8]: 100%; inhibition in vivo at 30 mg/kg [9]: 23.5%; IC50 [5]: 12 nM
3 | CN(CCNc1nccc2ccccc12)CCNc1ccnc2cc(Cl)ccc12 | 270 nM | 24 nM | 36 | –
4 | CN(CCCNC(=O)C=Cc1ccc2ccccc2c1)CCCNc1ccnc2cc(Cl)ccc12 | 10 nM | 4.9 nM | 140 | –
5 | CN(CCCNc1ccnc2cc(Cl)ccc12)CCCNc1ccnc2cc(Cl)ccc12 | 21 nM | 97 nM | 66 | –
6 | CN(CCNc1ccccn1)CCNc1ccnc2cc(Cl)ccc12 | 1100 nM | 510 nM | 430 | –
7 | CN(CCNc1nc2ccccc2[nH]1)CCNc1ccnc2cc(Cl)ccc12 | 3100 nM | 230 nM | 8.5 | –
8 | CN(CCNC(=O)C=Cc1cnc[nH]1)CCNc1ccnc2cc(Cl)ccc12 | 18000 nM | 750 nM | > 14 | –
9 | CN(CCNc1ccc2ccccc2n1)CCNc1ccnc2cc(Cl)ccc12 | 370 nM | 29 nM | 36 | –
10 | CN(CCNc1ncccn1)CCNc1ccnc2cc(Cl)ccc12 | 750 nM | 210 nM | 40 | –
11 | CCN(CC)CCCC(C)Nc1ccnc2cc(Cl)ccc12 (stereo unspecified) [CHLOROQUINE] | – | – | – | Activity [3]: Active; IC50 [5]: 46 nM
12 | C[C@H]1[C@H](OC(=O)CCC(=O)O)O[C@@H]2O[C@@]3(C)CC[C@H]4[C@H](C)CC[C@@H]1[C@@]24OO3 [ARTESUNATE] | – | – | – | inhibition in vivo at 15 mg/kg [10]: 95.2%; survival at 15 mg/kg [11]: 103%
13 | CN(CCNc1ccc2ccccc2n1)CCNc1ccc2ccccc2n1 | 18000 nM | 21000 nM | 17 | –
14 | CN(CCNC(=O)C=Cc1ccc2ccccc2n1)CCNc1ccnc2cc(Cl)ccc12 | 870 nM | 76 nM | 6 | –
15 | CN(CCNc1nc2ccccc2[nH]1)CCNc1nc2ccccc2[nH]1 | 19000 nM | 17300 nM | 4.7 | –
